# Like-named read-outs stand apart in the source and are kept apart here.
# Assays:
# Assay in all cases: biochemical
# Set-up in all cases: Eurofins KinaseProfiler full panel at Km ATP, residual kinase activity (%) relative to DMSO
# [1] = molecular target: T1, GRK3(h) (Homo sapiens, UniProt P35626)
# T1 sequence (P35626 1-688): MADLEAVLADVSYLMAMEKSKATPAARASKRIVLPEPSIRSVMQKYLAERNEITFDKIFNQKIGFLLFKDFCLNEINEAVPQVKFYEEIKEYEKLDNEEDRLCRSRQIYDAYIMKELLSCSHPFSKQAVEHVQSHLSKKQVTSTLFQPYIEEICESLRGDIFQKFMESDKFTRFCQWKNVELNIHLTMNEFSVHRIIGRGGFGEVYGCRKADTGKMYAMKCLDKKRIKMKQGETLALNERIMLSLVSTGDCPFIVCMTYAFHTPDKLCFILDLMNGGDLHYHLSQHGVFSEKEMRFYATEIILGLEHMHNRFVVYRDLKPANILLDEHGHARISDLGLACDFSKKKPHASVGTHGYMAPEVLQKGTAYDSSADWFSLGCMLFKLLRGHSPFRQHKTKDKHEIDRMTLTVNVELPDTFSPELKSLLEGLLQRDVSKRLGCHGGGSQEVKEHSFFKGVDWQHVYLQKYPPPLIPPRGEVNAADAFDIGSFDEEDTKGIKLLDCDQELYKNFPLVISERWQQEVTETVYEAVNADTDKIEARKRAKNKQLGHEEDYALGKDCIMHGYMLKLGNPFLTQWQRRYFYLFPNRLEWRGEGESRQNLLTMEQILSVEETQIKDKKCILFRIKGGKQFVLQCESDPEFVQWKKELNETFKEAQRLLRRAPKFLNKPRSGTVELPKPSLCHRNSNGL
# In short: (§1)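 Compounds screened at 10 µM in radiometric kinase activity assays at Km ATP, reported as remaining kinase activity (%). A KINOMEscan competition-binding screen at 10 µM measured DNA-tagged kinase retained on immobilized active-site ligand by qPCR.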
# [2] = molecular target: T2, HRI(h) (Homo sapiens, UniProt Q9BQI3)
# T2 construct: gene EIF2AK1
# In short: as §1
# [3] = molecular target: T3, MKK4(m) (Mus musculus, UniProt P47809)
# T3 construct: gene Map2k4
# T3 sequence (P47809 1-397): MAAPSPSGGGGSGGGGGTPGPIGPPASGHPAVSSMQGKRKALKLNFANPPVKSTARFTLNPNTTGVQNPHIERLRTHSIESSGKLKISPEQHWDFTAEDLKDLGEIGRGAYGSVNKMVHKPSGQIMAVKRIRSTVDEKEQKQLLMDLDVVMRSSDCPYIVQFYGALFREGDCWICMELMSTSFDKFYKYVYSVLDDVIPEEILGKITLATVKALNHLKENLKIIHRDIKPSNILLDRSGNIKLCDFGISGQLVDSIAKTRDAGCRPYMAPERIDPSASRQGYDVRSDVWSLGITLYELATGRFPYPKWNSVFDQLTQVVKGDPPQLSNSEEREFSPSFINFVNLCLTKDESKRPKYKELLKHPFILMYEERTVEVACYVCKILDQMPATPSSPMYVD
# In short: as §1
# [4] = molecular target: PAK2(h) (Homo sapiens, UniProt Q13177)
# In short: as §1
# [5] = molecular target: T4, PI3 Kinase (p110a/p85a)(m) (Mus musculus, UniProt P42337)
# T4 construct: gene Pik3ca
# In short: as §1
# [6] = molecular target: Ret (V804L)(h) (Homo sapiens, UniProt P07949, V804L)
# In short: as §1
# [7] = molecular target: T5, SAPK2b(h) (Homo sapiens, UniProt Q15759)
# T5 construct: gene MAPK11
# In short: as §1
# [8] = molecular target: T6, SGK3(h) (Homo sapiens, UniProt Q96BR1)
# T6 sequence (Q96BR1 1-496): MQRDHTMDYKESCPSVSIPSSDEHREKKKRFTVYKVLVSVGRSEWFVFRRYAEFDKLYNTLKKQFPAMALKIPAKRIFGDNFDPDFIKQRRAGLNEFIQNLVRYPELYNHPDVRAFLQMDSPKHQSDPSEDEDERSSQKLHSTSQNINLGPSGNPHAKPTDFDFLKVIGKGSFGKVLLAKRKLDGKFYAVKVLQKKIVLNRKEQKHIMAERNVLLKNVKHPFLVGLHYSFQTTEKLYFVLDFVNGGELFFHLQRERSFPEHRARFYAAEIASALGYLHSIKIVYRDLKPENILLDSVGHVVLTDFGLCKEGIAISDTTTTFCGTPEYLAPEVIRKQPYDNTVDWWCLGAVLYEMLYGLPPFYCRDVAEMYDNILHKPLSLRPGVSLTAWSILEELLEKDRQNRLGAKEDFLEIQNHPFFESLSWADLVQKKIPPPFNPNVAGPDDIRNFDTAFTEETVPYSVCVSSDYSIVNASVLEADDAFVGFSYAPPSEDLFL
# In short: as §1
# [9] = molecular target: STK16(h) (Homo sapiens, UniProt O75716)
# In short: as §1
# [10] = read-out: Residual activity (%) 5at
# [11] = read-out: Residual activity (%) 5as
# [12] = read-out: Residual activity (%) 5ay
# [13] = read-out: Residual activity (%) Spautin-1 5aa
# STK16(h), sequence (O75716 whole entry): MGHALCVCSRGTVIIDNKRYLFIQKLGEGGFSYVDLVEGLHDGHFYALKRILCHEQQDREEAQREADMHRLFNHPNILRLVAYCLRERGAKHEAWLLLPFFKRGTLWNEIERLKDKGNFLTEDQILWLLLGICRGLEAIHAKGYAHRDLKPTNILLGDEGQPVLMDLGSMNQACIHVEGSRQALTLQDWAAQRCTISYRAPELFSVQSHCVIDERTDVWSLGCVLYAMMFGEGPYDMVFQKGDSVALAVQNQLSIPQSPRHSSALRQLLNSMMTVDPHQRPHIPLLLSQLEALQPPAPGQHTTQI
# T5 sequence (Q15759 whole entry): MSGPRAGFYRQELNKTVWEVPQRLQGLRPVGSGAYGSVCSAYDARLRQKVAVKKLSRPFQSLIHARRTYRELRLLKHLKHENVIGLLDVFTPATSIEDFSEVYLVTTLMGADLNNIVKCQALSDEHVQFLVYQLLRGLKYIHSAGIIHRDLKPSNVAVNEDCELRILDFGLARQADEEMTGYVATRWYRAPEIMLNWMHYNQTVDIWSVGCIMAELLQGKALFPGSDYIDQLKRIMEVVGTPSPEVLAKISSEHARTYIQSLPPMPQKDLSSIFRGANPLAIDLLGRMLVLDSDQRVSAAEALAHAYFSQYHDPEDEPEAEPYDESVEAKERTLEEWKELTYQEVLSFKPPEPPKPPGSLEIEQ
# T4 sequence (P42337 whole entry): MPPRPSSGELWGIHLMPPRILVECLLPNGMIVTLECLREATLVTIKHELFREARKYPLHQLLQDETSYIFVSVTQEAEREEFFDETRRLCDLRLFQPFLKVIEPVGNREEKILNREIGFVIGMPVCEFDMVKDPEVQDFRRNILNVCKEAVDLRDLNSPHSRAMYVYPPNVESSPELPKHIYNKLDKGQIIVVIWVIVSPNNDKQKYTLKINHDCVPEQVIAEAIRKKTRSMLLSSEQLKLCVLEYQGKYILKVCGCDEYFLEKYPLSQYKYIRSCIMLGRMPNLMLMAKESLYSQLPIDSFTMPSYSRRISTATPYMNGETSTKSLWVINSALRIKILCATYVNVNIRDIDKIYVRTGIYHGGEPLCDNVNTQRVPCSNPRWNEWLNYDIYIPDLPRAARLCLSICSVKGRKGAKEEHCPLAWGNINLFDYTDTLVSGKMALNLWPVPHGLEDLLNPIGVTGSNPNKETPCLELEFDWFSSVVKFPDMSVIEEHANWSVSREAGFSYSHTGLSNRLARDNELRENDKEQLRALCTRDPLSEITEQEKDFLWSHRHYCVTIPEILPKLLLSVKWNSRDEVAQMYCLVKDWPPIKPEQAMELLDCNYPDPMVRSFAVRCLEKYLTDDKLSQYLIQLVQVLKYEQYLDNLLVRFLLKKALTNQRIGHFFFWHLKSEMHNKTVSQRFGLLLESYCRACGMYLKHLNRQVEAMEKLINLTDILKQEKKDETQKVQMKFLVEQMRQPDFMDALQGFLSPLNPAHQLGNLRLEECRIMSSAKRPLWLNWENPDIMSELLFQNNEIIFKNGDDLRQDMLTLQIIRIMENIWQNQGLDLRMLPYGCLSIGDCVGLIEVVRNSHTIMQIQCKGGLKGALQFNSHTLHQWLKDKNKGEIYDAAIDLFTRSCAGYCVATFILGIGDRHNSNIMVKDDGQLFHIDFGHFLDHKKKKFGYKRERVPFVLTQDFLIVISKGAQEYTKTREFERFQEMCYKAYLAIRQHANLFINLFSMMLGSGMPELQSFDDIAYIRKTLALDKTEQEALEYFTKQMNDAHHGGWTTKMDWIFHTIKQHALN
# T4 sequence (P26450 whole entry partner): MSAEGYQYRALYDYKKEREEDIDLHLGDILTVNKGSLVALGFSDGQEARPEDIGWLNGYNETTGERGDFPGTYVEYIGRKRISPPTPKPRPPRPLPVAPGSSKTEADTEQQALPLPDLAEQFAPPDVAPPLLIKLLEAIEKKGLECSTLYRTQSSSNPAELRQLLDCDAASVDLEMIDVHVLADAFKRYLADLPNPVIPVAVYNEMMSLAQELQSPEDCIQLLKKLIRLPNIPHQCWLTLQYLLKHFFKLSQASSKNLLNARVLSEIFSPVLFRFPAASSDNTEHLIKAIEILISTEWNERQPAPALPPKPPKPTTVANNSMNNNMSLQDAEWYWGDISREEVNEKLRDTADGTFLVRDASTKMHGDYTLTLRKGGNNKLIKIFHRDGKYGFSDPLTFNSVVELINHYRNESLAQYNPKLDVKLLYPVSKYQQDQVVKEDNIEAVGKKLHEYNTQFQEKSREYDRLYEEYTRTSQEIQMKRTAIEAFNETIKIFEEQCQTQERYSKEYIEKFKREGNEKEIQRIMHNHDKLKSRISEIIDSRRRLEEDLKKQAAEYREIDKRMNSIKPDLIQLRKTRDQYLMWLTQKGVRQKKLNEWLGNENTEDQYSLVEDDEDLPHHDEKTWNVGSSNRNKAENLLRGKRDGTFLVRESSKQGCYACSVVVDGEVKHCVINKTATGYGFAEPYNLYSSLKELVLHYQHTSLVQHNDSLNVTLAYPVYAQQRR
# Ret (V804L)(h), sequence (P07949 whole entry V804L): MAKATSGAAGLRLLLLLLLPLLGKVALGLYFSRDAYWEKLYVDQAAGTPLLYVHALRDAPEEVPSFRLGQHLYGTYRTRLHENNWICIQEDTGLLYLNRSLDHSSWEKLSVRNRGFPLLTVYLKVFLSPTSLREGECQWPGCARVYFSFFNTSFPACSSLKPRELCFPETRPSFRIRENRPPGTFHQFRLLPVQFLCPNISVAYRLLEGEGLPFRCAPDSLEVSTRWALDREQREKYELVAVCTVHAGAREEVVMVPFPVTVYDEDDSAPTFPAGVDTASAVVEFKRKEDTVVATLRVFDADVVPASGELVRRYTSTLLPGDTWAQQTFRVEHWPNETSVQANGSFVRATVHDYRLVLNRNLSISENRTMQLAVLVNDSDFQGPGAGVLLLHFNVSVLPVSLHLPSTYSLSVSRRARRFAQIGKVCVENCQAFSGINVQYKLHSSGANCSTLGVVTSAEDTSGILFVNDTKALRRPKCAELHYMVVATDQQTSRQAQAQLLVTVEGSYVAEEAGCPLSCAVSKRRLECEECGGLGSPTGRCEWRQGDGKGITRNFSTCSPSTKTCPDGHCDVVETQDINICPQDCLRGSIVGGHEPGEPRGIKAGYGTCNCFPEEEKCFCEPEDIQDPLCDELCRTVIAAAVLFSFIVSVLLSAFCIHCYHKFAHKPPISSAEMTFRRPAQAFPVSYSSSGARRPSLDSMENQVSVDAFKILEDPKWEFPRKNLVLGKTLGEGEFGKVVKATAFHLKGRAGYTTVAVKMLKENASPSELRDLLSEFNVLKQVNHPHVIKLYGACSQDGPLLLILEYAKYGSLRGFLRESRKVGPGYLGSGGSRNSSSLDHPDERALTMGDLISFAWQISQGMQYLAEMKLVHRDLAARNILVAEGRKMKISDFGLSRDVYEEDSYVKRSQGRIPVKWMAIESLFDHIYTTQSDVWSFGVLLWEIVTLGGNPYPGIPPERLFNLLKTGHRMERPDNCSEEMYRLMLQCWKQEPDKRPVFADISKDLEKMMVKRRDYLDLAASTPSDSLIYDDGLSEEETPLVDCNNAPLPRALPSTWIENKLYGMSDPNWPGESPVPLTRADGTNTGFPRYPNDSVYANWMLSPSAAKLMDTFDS
# T2 sequence (Q9BQI3 whole entry): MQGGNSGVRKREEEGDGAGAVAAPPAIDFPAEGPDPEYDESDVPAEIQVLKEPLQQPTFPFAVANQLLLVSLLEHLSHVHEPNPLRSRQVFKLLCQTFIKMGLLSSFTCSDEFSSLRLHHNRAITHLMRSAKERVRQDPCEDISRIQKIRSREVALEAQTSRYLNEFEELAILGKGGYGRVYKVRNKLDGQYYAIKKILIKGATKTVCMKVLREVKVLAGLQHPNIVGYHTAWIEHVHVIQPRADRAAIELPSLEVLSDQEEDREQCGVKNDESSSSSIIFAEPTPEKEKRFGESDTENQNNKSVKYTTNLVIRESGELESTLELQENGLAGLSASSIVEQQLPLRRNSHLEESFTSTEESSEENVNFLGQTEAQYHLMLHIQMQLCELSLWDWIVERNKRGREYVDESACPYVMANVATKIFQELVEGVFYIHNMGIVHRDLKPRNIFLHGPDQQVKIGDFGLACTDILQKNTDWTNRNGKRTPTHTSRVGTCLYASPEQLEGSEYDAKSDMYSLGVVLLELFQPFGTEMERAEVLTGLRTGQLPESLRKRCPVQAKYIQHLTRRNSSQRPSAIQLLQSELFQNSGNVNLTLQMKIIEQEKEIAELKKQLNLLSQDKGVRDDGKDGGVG
# PAK2(h), sequence (Q13177 whole entry): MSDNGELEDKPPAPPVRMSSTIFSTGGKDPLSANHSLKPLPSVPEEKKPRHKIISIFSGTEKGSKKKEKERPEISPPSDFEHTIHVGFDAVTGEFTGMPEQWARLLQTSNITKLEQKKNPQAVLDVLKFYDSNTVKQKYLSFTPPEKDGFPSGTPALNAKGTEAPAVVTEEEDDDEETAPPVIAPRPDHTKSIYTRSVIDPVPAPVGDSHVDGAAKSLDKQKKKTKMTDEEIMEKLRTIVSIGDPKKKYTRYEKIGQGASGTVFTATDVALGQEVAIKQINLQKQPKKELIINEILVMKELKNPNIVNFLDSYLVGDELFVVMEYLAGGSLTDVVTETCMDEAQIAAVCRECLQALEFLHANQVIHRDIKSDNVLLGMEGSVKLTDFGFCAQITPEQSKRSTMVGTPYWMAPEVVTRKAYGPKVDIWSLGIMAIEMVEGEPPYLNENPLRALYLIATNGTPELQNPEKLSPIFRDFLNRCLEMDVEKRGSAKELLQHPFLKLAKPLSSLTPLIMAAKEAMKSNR
smiles,measurement,setting,value
"Fc1ccc2ncnc(NCCc3ccc(Cl)cc3)c2c1 [5at, N-[2-(4-Chlorophenyl)Ethyl]-6-Fluoro-4-Quinazolinamine]",remaining activity at 10 µM,[1]; [10],97%
same,remaining activity at 10 µM,[2]; [10],101%
same,remaining activity at 10 µM,[3]; [10],118%
same,remaining activity at 10 µM,[4]; [10],78%
same,remaining activity at 10 µM,[5]; [10],82%
same,remaining activity at 10 µM,[6]; [10],71%
same,remaining activity at 10 µM,[7]; [10],84%
same,remaining activity at 10 µM,[8]; [10],93%
same,remaining activity at 10 µM,[9]; [10],78%
"Fc1ccc(CCNc2ncnc3ccc(F)cc23)cc1 [5as, 6-Fluoro-N-[2-(4-Fluorophenyl)Ethyl]-4-Quinazolinamine]",remaining activity at 10 µM,[1]; [11],92%
same,remaining activity at 10 µM,[2]; [11],99%
same,remaining activity at 10 µM,[3]; [11],112%
same,remaining activity at 10 µM,[4]; [11],94%
same,remaining activity at 10 µM,[5]; [11],83%
same,remaining activity at 10 µM,[6]; [11],78%
same,remaining activity at 10 µM,[7]; [11],95%
same,remaining activity at 10 µM,[8]; [11],88%
same,remaining activity at 10 µM,[9]; [11],75%
"COc1ccc2ncnc(Nc3cccc(F)c3)c2c1 [5ay, N-(3-Fluorophenyl)-6-Methoxy-4-Quinazolinamine]",remaining activity at 10 µM,[1]; [12],93%
same,remaining activity at 10 µM,[2]; [12],99%
same,remaining activity at 10 µM,[3]; [12],110%
same,remaining activity at 10 µM,[4]; [12],98%
same,remaining activity at 10 µM,[5]; [12],84%
same,remaining activity at 10 µM,[6]; [12],91%
same,remaining activity at 10 µM,[7]; [12],83%
same,remaining activity at 10 µM,[8]; [12],91%
same,remaining activity at 10 µM,[9]; [12],76%
"Fc1ccc(CNc2ncnc3ccc(F)cc23)cc1 [5aa, 6-Fluoro-N-(4-fluorobenzyl)-4-Quinazolinamine]",remaining activity at 10 µM,[1]; [13],95%
same,remaining activity at 10 µM,[2]; [13],96%
same,remaining activity at 10 µM,[3]; [13],105%
same,remaining activity at 10 µM,[4]; [13],87%
same,remaining activity at 10 µM,[5]; [13],86%
same,remaining activity at 10 µM,[6]; [13],82%
same,remaining activity at 10 µM,[7]; [13],79%
same,remaining activity at 10 µM,[8]; [13],95%
same,remaining activity at 10 µM,[9]; [13],88%

# — article PMC7827406, “Structure–Activity Relationship (SAR) Study of Spautin-1 to Entail the Discovery of Novel NEK4 Inhibitors” (International Journal of Molecular Sciences, 2021)
